# Test results taken from patent publication US20250170096A1, “OXPHOS INHIBITORS FOR USE IN TREATING CANCER” (ImmunoMet Therapeutics, Inc., priority 2022, published 2025).
# Experiments:
# OXPHOS = test: Pre- and post-treatment biopsies of patients receiving cancer therapies; assay type: in vivo; settings: for Effect of therapy on OXPHOS, post-treatment versus pre-treatment biopsies: across cancers, named as the most significant therapies
# Text: Biopsies were collected from subjects undergoing treatment for cancer (FIG. 1A).
# [1] = test system: Patient derived xenograft cells; test: Growth of patient derived xenograft cells treated in vitro; assay type: cell-based; settings: in vitro exposure of patient-derived xenograft cells to gemcitabine; FIG. 2
# Method: Patient derived xenograft cells were treated with the compound of Formula 1, Gemcitabine (Gem), or the compound of Formula 1 and gemcitabine together (FIG. 2). Cells treated with both Gem and Formula 1 grew slower than cells treated with Formula 1 or Gem alone.
smiles,measurement,setting,value
N.N.O=C([O-])C1(C(=O)[O-])CCC1.[Pt+2] [carboplatin],"Effect of therapy on OXPHOS, post-treatment versus pre-treatment biopsies",OXPHOS,increase OXPHOS
same,OXPHOS following treatment,"OXPHOS; breast cancer, endometrial cancer, NSCLC, ovarian cancer, FIG. 1G",increase in OXPHOS
O=P1(N(CCCl)CCCl)NCCCO1 (centres unmarked) [cyclophosphamide],"Effect of therapy on OXPHOS, post-treatment versus pre-treatment biopsies",OXPHOS,increase OXPHOS
same,OXPHOS following treatment,"OXPHOS; breast cancer and sarcoma, FIG. 1F",increase in OXPHOS
COc1cccc2c1C(=O)c1c(O)c3c(c(O)c1C2=O)C[C@@](O)(C(=O)CO)C[C@@H]3O[C@H]1C[C@H](N)[C@H](O)[C@H](C)O1 [doxorubicin],"Effect of therapy on OXPHOS, post-treatment versus pre-treatment biopsies",OXPHOS,increase OXPHOS
same,OXPHOS following treatment,"OXPHOS; bladder cancer, breast cancer, sarcoma, FIG. 1H",increase in OXPHOS
CNC(=O)c1ccc(N2C(=S)N(c3ccc(C#N)c(C(F)(F)F)c3)C(=O)C2(C)C)cc1F [enzalutamide],"Effect of therapy on OXPHOS, post-treatment versus pre-treatment biopsies",OXPHOS,increase OXPHOS
same,OXPHOS following treatment,"OXPHOS; prostate cancer, FIG. 1D",increase in OXPHOS
C[C@]12CC[C@@H]3c4ccc(O)cc4C[C@@H](CCCCCCCCC[S+]([O-])CCCC(F)(F)C(F)(F)F)[C@H]3[C@@H]1CC[C@@H]2O (some centres unmarked) [fulvestrant],"Effect of therapy on OXPHOS, post-treatment versus pre-treatment biopsies",OXPHOS,increase OXPHOS
same,OXPHOS following treatment,"OXPHOS; breast cancer, FIG. 1E",increase in OXPHOS
"Nc1ccn([C@@H]2O[C@H](CO)[C@@H](O)C2(F)F)c(=O)n1 [gemcitabine, Gemcitabine]",Sensitization of tumor cells to the compound of Formula 1,[1],sensitizes tumor cells to the compound of Formula 1
N#Cc1ccc(C(c2ccc(C#N)cc2)n2cncn2)cc1 [letrozole],"Effect of therapy on OXPHOS, post-treatment versus pre-treatment biopsies",OXPHOS,increase OXPHOS
same,OXPHOS following treatment,"OXPHOS; breast cancer, FIG. 1E",increase in OXPHOS
CCNC(=O)[C@@H]1CCCN1C(=O)[C@H](CCCNC(=N)N)NC(=O)[C@H](CC(C)C)NC(=O)[C@@H](CC(C)C)NC(=O)[C@H](Cc1ccc(O)cc1)NC(=O)[C@H](CO)NC(=O)[C@H](Cc1c[nH]c2ccccc12)NC(=O)[C@H](Cc1c[nH]cn1)NC(=O)[C@@H]1CCC(=O)N1 [leuprolide],"Effect of therapy on OXPHOS, post-treatment versus pre-treatment biopsies",OXPHOS,increase OXPHOS
same,OXPHOS following treatment,"OXPHOS; breast cancer and prostate cancer, FIG. 1C",increase in OXPHOS
CC(=O)O[C@H]1C(=O)[C@@]2(C)[C@H]([C@H](OC(=O)c3ccccc3)[C@]3(O)C[C@H](OC(=O)[C@H](O)[C@@H](NC(=O)c4ccccc4)c4ccccc4)C(C)=C1C3(C)C)[C@]1(OC(C)=O)CO[C@@H]1C[C@@H]2O [paclitaxel],"Effect of therapy on OXPHOS, post-treatment versus pre-treatment biopsies",OXPHOS,increase OXPHOS
same,OXPHOS following treatment,"OXPHOS; breast cancer, endometrial cancer, NSCLC, ovarian cancer, FIG. 1I",increase in OXPHOS
